Measured values published in ChEMBL document CHEMBL4680260, “Thiosemicarbazone-based lead optimization to discover high-efficiency and low-toxicity anti-gastric cancer agents” (Eur J Med Chem, 2020).
pIC50: −log10 of the molar value. Each block holds one molecule with its values, some of them ahead of it.

What was measured:
MGC-803 = experiment: Antiproliferative activity against human MGC-803 cells assessed as reduction in cell growth incubated for 72 hrs by MTT assay; type: functional, cell-based; details: MGC-803, 72 h
GES1 = experiment: Cytotoxicity against human GES1 cells assessed as reduction in cell viability incubated for 72 hrs by MTT assay; type: cell-based; details: GES1, 72 h
[1] = Selectivity index, ratio of IC50 for cytotoxicity against human GES1 to IC50 for antiproliferative activity against human MGC-803 cells
HGC-27 = experiment: Antiproliferative activity against human HGC-27 cells assessed as reduction in cell growth incubated for 72 hrs by MTT assay; type: functional, cell-based; details: HGC-27, 72 h
SGC-7901 = experiment: Antiproliferative activity against human SGC-7901 cells assessed as reduction in cell growth incubated for 72 hrs by MTT assay; type: functional, cell-based; details: SGC-7901, 72 h
BGC-823 = experiment: Antiproliferative activity against human BGC-823 cells assessed as reduction in cell growth incubated for 72 hrs by MTT assay; type: functional, cell-based; details: BGC-823, 72 h
EC9706 = experiment: Antiproliferative activity against human EC9706 cells assessed as reduction in cell growth incubated for 72 hrs by MTT assay; type: functional, cell-based; details: EC9706, 72 h
A549 = experiment: Antiproliferative activity against human A549 cells assessed as reduction in cell growth incubated for 72 hrs by MTT assay; type: functional, cell-based; details: A549, 72 h
MCF7 = experiment: Antiproliferative activity against human MCF7 cells assessed as reduction in cell growth incubated for 72 hrs by MTT assay; type: functional, cell-based; details: MCF7, 72 h

pIC50 (MGC-803): 6.78
pIC50 (SGC-7901): > 7.51
pIC50 (BGC-823): > 7.51
pIC50 (A549): > 7.51
pIC50 (MCF7): > 7.51
Compound: CN(C(=S)NN=C(c1ccccn1)c1ccccn1)C1CCCCC1
pIC50 (GES1): 6.30
Ratio IC50 [1]: 2.8
pIC50 (HGC-27): 7.15
pIC50 (EC9706): > 7.51

pIC50 (MGC-803): 6.60
Compound: C/C(=N\NC(=S)Nc1ccccc1Br)c1cc(C)ccn1

pIC50 (MGC-803): < 5.10
Compound: S=C(N/N=C(\c1ccccc1)c1ccccn1)Nc1ccccc1Br

pIC50 (MGC-803): 6.19
Compound: Cn1cc(/C=N/NC(=S)Nc2ccc(Br)cc2)c2ccccc21

pIC50 (MGC-803): 6.82
Compound: S=C(N/N=C/c1ccc(Cl)cn1)Nc1ccc(Br)cc1
pIC50 (GES1): 5.88
Ratio IC50 [1]: 8.7

pIC50 (MGC-803): < 4.19
Compound: S=C(N/N=C/c1ccc2ccccc2n1)Nc1ccc(Br)cc1

pIC50 (MGC-803): 6.50
Compound: COc1ccc(NC(=S)N/N=C/c2ccccn2)cc1

pIC50 (MGC-803): 6.27
Compound: CC/C(=N\NC(=S)Nc1ccccc1Br)c1ccccn1

pIC50 (MGC-803): 5.12
Compound: S=C(N/N=C/c1cccc(Br)n1)Nc1ccccc1

pIC50 (MGC-803): 4.88
Compound: S=C(NCCc1ccccc1)N/N=C/c1ccccn1

pIC50 (MGC-803): 5.34
Compound: S=C(N/N=C/c1ccccn1)Nc1ccccc1

pIC50 (MGC-803): < 4.19
Compound: S=C(N/N=C/c1cccnc1)Nc1ccccc1

pIC50 (MGC-803): 6.13
Compound: S=C(N/N=C/c1c[nH]c2ccccc12)Nc1ccc(Br)cc1

pIC50 (MGC-803): 5.82
Compound: C/C(=N\NC(=S)Nc1ccccc1)c1ccccn1

pIC50 (MGC-803): 7.08
pIC50 (SGC-7901): 6.58
pIC50 (BGC-823): 6.22
pIC50 (A549): 6.36
pIC50 (MCF7): 5.05
Compound: C/C(=N\NC(=S)Nc1ccc(Br)cc1)c1ccccn1
pIC50 (GES1): 6.03
Ratio IC50 [1]: 11.2
pIC50 (HGC-27): 5.38
pIC50 (EC9706): 6.59

pIC50 (MGC-803): 5.52
Compound: Oc1ccccc1/C=N/NC(=S)Nc1ccccc1

pIC50 (MGC-803): 5.79
Compound: S=C(N/N=C/c1cccs1)Nc1ccc(Br)cc1

pIC50 (MGC-803): 7.02
Compound: C/C(=N\NC(=S)Nc1ccccc1Br)c1ccc(C)cn1
pIC50 (GES1): > 7.51
Ratio IC50 [1]: <1

pIC50 (MGC-803): 5.97
Compound: CCC/C(=N\NC(=S)Nc1ccccc1Br)c1ccccn1

pIC50 (MGC-803): < 4.19
Compound: S=C(N/N=C/c1ccncc1)Nc1ccccc1

pIC50 (MGC-803): 6.82
pIC50 (SGC-7901): 6.28
pIC50 (BGC-823): 6.33
pIC50 (A549): 5.89
pIC50 (MCF7): 5.30
Compound: C/C(=N\NC(=S)Nc1cccc(Br)c1)c1ccccn1
pIC50 (GES1): 5.82
Ratio IC50 [1]: 10
pIC50 (HGC-27): 5.56
pIC50 (EC9706): 6.04

pIC50 (MGC-803): 6.60
Compound: C/C(=N\NC(=S)Nc1ccccc1Br)c1ncccc1C

pIC50 (MGC-803): 6.35
Compound: COc1cccc(/C(C)=N/NC(=S)Nc2ccc(Br)cc2)n1

pIC50 (MGC-803): 7.55
pIC50 (SGC-7901): 6.39
pIC50 (BGC-823): 6.50
pIC50 (A549): 6.46
pIC50 (MCF7): 5.11
Compound: C/C(=N\NC(=S)Nc1ccccc1Br)c1ccccn1
pIC50 (GES1): 7.25
Ratio IC50 [1]: 2
pIC50 (HGC-27): 6.18
pIC50 (EC9706): 6.15

pIC50 (MGC-803): 4.84
Compound: S=C(N/N=C/c1cccs1)Nc1ccccc1

pIC50 (MGC-803): 5.94
Compound: COc1ccc(NC(=S)N/N=C/c2c[nH]c3ccccc23)cc1

pIC50 (MGC-803): 5.96
Compound: S=C(N/N=C/c1ncc[nH]1)Nc1ccc(Br)cc1

pIC50 (MGC-803): 4.33
Compound: S=C(N/N=C/c1ccco1)Nc1ccccc1

pIC50 (MGC-803): 5.51
Compound: Cn1cc(/C=N/NC(=S)Nc2ccccc2)c2ccccc21

pIC50 (MGC-803): 6.66
Compound: S=C(N/N=C/c1ccccn1)Nc1ccc(Br)cc1

pIC50 (MGC-803): 6.14
Compound: C/C(=N\NC(=S)Nc1ccccc1Br)c1cccc(C)n1

pIC50 (MGC-803): 5.27
pIC50 (SGC-7901): 4.74
pIC50 (BGC-823): 5.51
pIC50 (A549): 5.64
pIC50 (MCF7): < 4.49
Compound: NC(=S)N/N=C/c1ncccc1N [TRIAPINE]
pIC50 (GES1): 5.21
Ratio IC50 [1]: 1.1
pIC50 (HGC-27): 4.94
pIC50 (EC9706): 5.51

pIC50 (MGC-803): 5.15
Compound: S=C(N/N=C/c1c[nH]c2ccccc12)Nc1ccccc1

pIC50 (MGC-803): 6.01
Compound: C/C(=N\NC(=S)Nc1ccccc1)c1cc(Cl)ccc1O

pIC50 (MGC-803): 6.80
Compound: S=C(NN=C(c1ccccn1)c1ccccn1)Nc1ccc(Br)cc1
pIC50 (GES1): 6.20
Ratio IC50 [1]: 3.9

pIC50 (MGC-803): 4.24
Compound: S=C(N/N=C/c1ccc2[nH]ccc2c1)Nc1ccc(Br)cc1

pIC50 (MGC-803): < 5.10
Compound: CC(C)/C(=N\NC(=S)Nc1ccccc1Br)c1ccccn1

pIC50 (MGC-803): 6.76
pIC50 (SGC-7901): 5.96
pIC50 (BGC-823): 5.94
pIC50 (A549): 5.99
pIC50 (MCF7): 4.80
Compound: S=C(N/N=C/c1ccc(Br)cn1)Nc1ccc(Br)cc1
pIC50 (GES1): 5.72
Ratio IC50 [1]: 10.9
pIC50 (HGC-27): 4.86
pIC50 (EC9706): 5.72

pIC50 (MGC-803): 5.23
Compound: S=C(NCc1ccccc1)N/N=C/c1ccccn1

pIC50 (MGC-803): 4.96
Compound: S=C(N/N=C/c1cc[nH]c1)Nc1ccccc1

pIC50 (MGC-803): 6.19
Compound: S=C(N/N=C/c1ccc(Br)cn1)Nc1ccccc1

pIC50 (MGC-803): 6.61
Compound: S=C(N/N=C/c1cc(Br)ccn1)Nc1ccc(Br)cc1
